Measured values reported in ChEMBL document CHEMBL5338723, “Emerging Target-Directed Approaches for the Treatment and Diagnosis of Microbial Infections” (J Med Chem, 2023).
*1 amine or outer side, *2 acyl side, *3 side chain or, on linkers, in order; H or OH if unused. Where a SMILES comes first, the peptide text is derived from it. Side-chain parts run from the residue outwards. [ ]: non-standard residue; d: D form. The star is where a group is joined. X1 = Cn1c(=N)ccn([C@@H]2S[C@H]([C@@H](O)[C@@H](N[*:1])C(=O)[*:2])[C@H](O)[C@H]2O)c1=O; DAMPA = CN(Cc1cnc2nc(N)nc(N)c2n1)c1ccc(C(=O)*)cc1; Orn(N5-OH,N5-Ac) = CC(=O)N(O)CCC[C@H](N)C(=O)O; γGlu = O=C(O)[C@H](CCC(=O)[*:2])N[*:1]; Ethylenediamine = C(CN[*:2])N[*:1]

Experiments:
[1] = system: Escherichia coli; assay: Antimicrobial activity against aroB/fepA negative Escherichia coli H873 assessed as microbial growth inhibition; type: functional
[2] = system: Escherichia coli; assay: Antimicrobial activity against aroB/fepA/cir negative Escherichia coli H1875 assessed as microbial growth inhibition; type: functional
[3] = system: Escherichia coli; assay: Antimicrobial activity against Escherichia coli B assessed as microbial growth inhibition; type: functional
[4] = system: Escherichia coli; assay: Antimicrobial activity against Escherichia coli MC4100 assessed as microbial growth inhibition; type: functional
[5] = system: Escherichia coli; assay: Antimicrobial activity against Escherichia coli W3110 assessed as microbial growth inhibition; type: functional
[6] = system: Escherichia coli; assay: Antimicrobial activity against Escherichia coli C600 harboring pHX405 plasmid assessed as microbial growth inhibition; type: functional
[7] = system: Escherichia coli; assay: Antimicrobial activity against aroB/cir negative Escherichia coli H2222 assessed as microbial growth inhibition; type: functional
[8] = system: Escherichia coli; assay: Antimicrobial activity against aroB/fepA/fiu negative Escherichia coli H1877 assessed as microbial growth inhibition; type: functional
[9] = system: Escherichia coli; assay: Antimicrobial activity against aroB/fiu negative Escherichia coli H1594 assessed as microbial growth inhibition; type: functional
[10] = system: Enterobacter cloacae; assay: Antibacterial activity against Enterobacter cloacae; type: functional
[11] = system: Escherichia coli; assay: Antimicrobial activity against Escherichia coli F assessed as microbial growth inhibition; type: functional
[12] = system: Escherichia coli; assay: Antimicrobial activity against pTon positive Escherichia coli W3110-KP1344 harboring pMS7 assessed as microbial growth inhibition; type: functional
[13] = system: Salmonella enteritidis; assay: Antimicrobial activity against Salmonella enterica subsp. enterica serovar Enteritidis assessed as increase in microbial growth inhibition; type: functional
[14] = system: Escherichia coli; assay: Antimicrobial activity against exbB/exbD negative Escherichia coli W3110-6 assessed as microbial growth inhibition; type: functional
[15] = system: Klebsiella pneumoniae; assay: Antibacterial activity against Klebsiella pneumoniae assessed as microbial growth inhibition; type: functional
[16] = system: Escherichia coli; assay: Antimicrobial activity against fhuA negative Escherichia coli C600 assessed as microbial growth inhibition; type: functional
[17] = system: Escherichia coli; assay: Antimicrobial activity against Escherichia coli ML35p assessed as microbial growth inhibition; type: functional
[18] = system: Escherichia coli; assay: Antimicrobial activity against aroB negative Escherichia coli H1443 assessed as microbial growth inhibition; type: functional
[19] = system: Escherichia coli; assay: Antimicrobial activity against aroB/cir/fiu negative Escherichia coli H1728 assessed as microbial growth inhibition; type: functional
[20] = system: Yersinia enterocolitica; assay: Antimicrobial activity against Yersinia enterocolitica assessed as microbial growth inhibition; type: functional
[21] = Cytotoxicity against human L02 assessed as lethal dose; type: toxicity, cell-based; conditions: L02 cells, read-out: LD50 (the source's name)
[22] = system: Streptococcus pneumoniae; assay: Antimicrobial activity against Streptococcus pneumoniae assessed as microbial growth inhibition; type: functional
[23] = Potency index, ratio of test compound LD50 to methotrexate LD50 for cytotoxicity against human L02 cells; type: toxicity, cell-based

CC(=O)N(O)CCC[C@H](NC(=O)[C@H](CCCN(O)C(C)=O)NC(=O)[C@@H](N)CCCN(O)C(C)=O)C(=O)N[C@@H](CO)C(=O)N[C@@H](C(=O)O)[C@H](O)[C@H]1S[C@@H](n2ccc(=N)n(C)c2=O)[C@H](O)[C@H]1O (H-[Orn(N5-OH,N5-Ac)][Orn(N5-OH,N5-Ac)][Orn(N5-OH,N5-Ac)]S[X1]-OH)
0.04 µM: MIC [1] | MIC [2] | MIC [3] | MIC [4] | MIC [5] | MIC [6] | MIC [7] | MIC [8] | MIC [9] | MIC [10] | MIC [11] | MIC [12] | MIC [13] | MIC [14] | MIC [15] | MIC [16] | MIC [17] | MIC [18] | MIC [19]

CC(=O)N(O)CCC[C@H](NC(=O)[C@H](CCCN(O)C(C)=O)NC(=O)[C@@H](N)CCCN(O)C(C)=O)C(=O)N[C@@H](CCC(=O)NCCNC(=O)CC[C@H](NC(=O)c1ccc(N(C)Cc2cnc3nc(N)nc(N)c3n2)cc1)C(=O)O)C(=O)O (H-[Orn(N5-OH,N5-Ac)][Orn(N5-OH,N5-Ac)][Orn(N5-OH,N5-Ac)]E([Ethylenediamine-γGlu-DAMPA])-OH)
6.84 nM: MIC [20]
2310: selectivity ratio [23]
18.5 µM: CC50 [21]
1.72 nM: MIC [22]
